In PubChem BioAssay AID248 (DTP/NCI, 2004):
Inconclusive results and toxic doses are left out. No stated cut-off is given here; in the data, active means T/C of 150% or more; inactive means T/C below 125%.

Tested on: L1210 leukemia ip in BDF1 mice, survival T/C
Test: NCI In Vivo Anticancer Drug Screen. Data for tumor model L1210 Leukemia (intraperitoneal) in B6D2F1 (BDF1) mice
Settings: endpoint: mean survival time, higher = longer survival
Summary of the method: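 In this screen, tumor-bearing mice given compound are compared to those given vehicle, and their survival values are reported as a treated-to-control quotient.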

[1] = dose: 100.0 mg/kg/injection, schedule: Q04DX003 (ip), vehicle: Klucel (hydroxypropylcellulose) (HPC)
[2] = dose: 200.0 mg/kg/injection, schedule: Q04DX003 (ip), vehicle: Klucel (hydroxypropylcellulose) (HPC)
[3] = dose: 400.0 mg/kg/injection, schedule: Q04DX003 (ip), vehicle: Klucel (hydroxypropylcellulose) (HPC)
[4] = dose: 100.0 mg/kg/injection, schedule: Q01DX001 (ip), vehicle: other
[5] = dose: 100.0 mg/kg/injection, schedule: Q01DX009 (ip), vehicle: other
[6] = dose: 400.0 mg/kg/injection, schedule: Q01DX001 (ip), vehicle: other
[7] = dose: 100.0 mg/kg/injection, schedule: Q01DX009 (ip), vehicle: saline with Tween-80
[8] = dose: 100.0 mg/kg/injection, schedule: Q04DX003 (ip), vehicle: saline with Tween-80
[9] = dose: 200.0 mg/kg/injection, schedule: Q01DX009 (ip), vehicle: saline with Tween-80
[10] = dose: 200.0 mg/kg/injection, schedule: Q04DX003 (ip), vehicle: saline with Tween-80
[11] = dose: 100.0 mg/kg/injection, schedule: Q01DX001 (ip), vehicle: saline with Tween-80
[12] = dose: 400.0 mg/kg/injection, schedule: Q04DX003 (ip), vehicle: saline with Tween-80
[13] = dose: 75.0 mg/kg/injection, schedule: Q01DX001 (ip), vehicle: saline
[14] = dose: 150.0 mg/kg/injection, schedule: Q01DX001 (ip), vehicle: saline
[15] = dose: 100.0 mg/kg/injection, schedule: Q01DX001 (ip), vehicle: Klucel (hydroxypropylcellulose) (HPC)
[16] = dose: 200.0 mg/kg/injection, schedule: Q01DX001 (ip), vehicle: Klucel (hydroxypropylcellulose) (HPC)
[17] = dose: 400.0 mg/kg/injection, schedule: Q01DX001 (ip), vehicle: Klucel (hydroxypropylcellulose) (HPC)
[18] = dose: 100.0 mg/kg/injection, schedule: Q04DX002 (ip), vehicle: Klucel (hydroxypropylcellulose) (HPC)

Measured: T/C

CCCCCCCCCCCCCCCC1=NN(c2ccc([N+](=O)[O-])cc2)C(=O)C1
inactive: [1] 94 % of control | [2] 89 % of control | [3] 100 % of control

COc1ccc(CC2=[N+](C)CCc3cc(OC)c(OC)cc32)cc1OC
inactive: dose: 25.0 mg/kg/injection, schedule: Q01DX009 (ip), vehicle: other 101 % of control | dose: 50.0 mg/kg/injection, schedule: Q01DX009 (ip), vehicle: other 104 % of control | [4] 106 % of control | [5] 106 % of control | [6] 106 % of control

c1ccc(NC23CC4CC(CC(C4)C2)C3)cc1
inactive: dose: 50.0 mg/kg/injection, schedule: Q01DX009 (ip), vehicle: saline with Tween-80 102 % of control | [7] 97 % of control | [8] 94 % of control | [9] 88 % of control | [10] 92 % of control | dose: 300.0 mg/kg/injection, schedule: Q01DX009 (ip), vehicle: saline with Tween-80 98 % of control

CN(C)C1CCC(Nc2nc(Nc3cc(Cl)cc(Cl)c3)nc3ccccc23)CC1 (stereo not given)
inactive: [11] 95 % of control

COc1cc(CCCc2ccc(O)c(=O)cc2)cc(OC)c1OC
inactive: [8] 111 % of control | [10] 94 % of control | [12] 94 % of control

CCCCCCCCCCCCCS
inactive: dose: 40.0 mg/kg/injection, schedule: Q01DX Z (ip), vehicle: saline 108 % of control | dose: 50.0 mg/kg/injection, schedule: Q04DX003 (ip), vehicle: carboxymethylcellulose (CMC) 100 % of control | dose: 60.0 mg/kg/injection, schedule: Q01DX Z (ip), vehicle: saline 120 % of control | dose: 90.0 mg/kg/injection, schedule: Q01DX Z (ip), vehicle: saline 111 % of control | dose: 100.0 mg/kg/injection, schedule: Q01DX001 (ip), vehicle: carboxymethylcellulose (CMC) 110 % of control | dose: 100.0 mg/kg/injection, schedule: Q04DX003 (ip), vehicle: carboxymethylcellulose (CMC) 105 % of control | dose: 135.0 mg/kg/injection, schedule: Q01DX Z (ip), vehicle: saline 120 % of control | dose: 200.0 mg/kg/injection, schedule: Q01DX001 (ip), vehicle: carboxymethylcellulose (CMC) 101 % of control | dose: 200.0 mg/kg/injection, schedule: Q01DX Z (ip), vehicle: saline 108 % of control | dose: 200.0 mg/kg/injection, schedule: Q04DX003 (ip), vehicle: carboxymethylcellulose (CMC) 100 % of control | dose: 202.5 mg/kg/injection, schedule: Q01DX Z (ip), vehicle: saline 117 % of control | dose: 400.0 mg/kg/injection, schedule: Q01DX001 (ip), vehicle: carboxymethylcellulose (CMC) 116 % of control | dose: 450.0 mg/kg/injection, schedule: Q01DX Z (ip), vehicle: saline 108 % of control | dose: 675.0 mg/kg/injection, schedule: Q01DX Z (ip), vehicle: saline 90 % of control

CC1=CC(C)(N=[N+]=[N-])CC(C)(C)C1 (stereo not given)
inactive: dose: 37.5 mg/kg/injection, schedule: Q04DX003 (ip), vehicle: saline 107 % of control | [13] 98 % of control | dose: 75.0 mg/kg/injection, schedule: Q04DX003 (ip), vehicle: saline 100 % of control | [14] 92 % of control | dose: 150.0 mg/kg/injection, schedule: Q04DX003 (ip), vehicle: saline 103 % of control

COn1c(/C=N/NC(N)=S)ccc1CN1C(=O)c2ccccc2C1=O
inactive: [15] 100 % of control | [16] 97 % of control | [17] 93 % of control

CCCC[N+](C)(CC(C)C)C1CCCCCCC1 (stereo not given)
inactive: dose: 75.0 mg/kg/injection, schedule: Q01DX001 (ip), vehicle: carboxymethylcellulose (CMC) 104 % of control | [13] 96 % of control | [14] 93 % of control

NCCSCCN
inactive: dose: 100.0 mg/kg/injection, schedule: Q01DX009 (ip), vehicle: Klucel (hydroxypropylcellulose) (HPC) 104 % of control | dose: 200.0 mg/kg/injection, schedule: Q01DX009 (ip), vehicle: Klucel (hydroxypropylcellulose) (HPC) 100 % of control

CC1(C)N=C(N)N=C(N)N1c1ccc(CCc2ccc(S(=O)(=O)F)cc2)cc1
inactive: [11] 97 % of control | dose: 200.0 mg/kg/injection, schedule: Q01DX001 (ip), vehicle: saline with Tween-80 97 % of control | dose: 400.0 mg/kg/injection, schedule: Q01DX001 (ip), vehicle: saline with Tween-80 102 % of control

O=C(NC1CCCCC1)c1ccccc1
inactive: [1] 100 % of control | [2] 93 % of control | [3] 96 % of control

c1ccc(C2=NN(c3ccccc3)CC2)cc1
inactive: [18] 106 % of control | dose: 200.0 mg/kg/injection, schedule: Q04DX002 (ip), vehicle: Klucel (hydroxypropylcellulose) (HPC) 98 % of control | dose: 400.0 mg/kg/injection, schedule: Q04DX002 (ip), vehicle: Klucel (hydroxypropylcellulose) (HPC) 106 % of control

O=C(N/N=C/C=C/c1ccccc1)c1ccco1
inactive: [4] 87 % of control | dose: 200.0 mg/kg/injection, schedule: Q01DX001 (ip), vehicle: other 87 % of control | [6] 93 % of control

CC1C(C)N1P(I)(c1ccccc1)(c1ccccc1)c1ccccc1 (stereo not given)
inactive: dose: 2.5 mg/kg/injection, schedule: Q01DX001 (ip), vehicle: carboxymethylcellulose (CMC) 115 % of control

CCCC(C)OS(=O)(=O)c1ccc(Br)cc1 (stereo not given)
inactive: dose: 100.0 mg/kg/injection, schedule: Q01DX009 (ip), vehicle: saline 91 % of control | dose: 100.0 mg/kg/injection, schedule: Q04DX002 (ip), vehicle: saline with Tween-80 97 % of control | dose: 200.0 mg/kg/injection, schedule: Q01DX009 (ip), vehicle: saline 96 % of control | dose: 200.0 mg/kg/injection, schedule: Q04DX002 (ip), vehicle: saline with Tween-80 100 % of control | dose: 400.0 mg/kg/injection, schedule: Q01DX009 (ip), vehicle: saline 86 % of control | dose: 400.0 mg/kg/injection, schedule: Q04DX002 (ip), vehicle: saline with Tween-80 97 % of control

O=c1[nH]c2c(N3CCOCC3)cccc2o1
inactive: dose: 25.0 mg/kg/injection, schedule: Q04DX002 (ip), vehicle: Klucel (hydroxypropylcellulose) (HPC) 93 % of control | dose: 50.0 mg/kg/injection, schedule: Q04DX002 (ip), vehicle: Klucel (hydroxypropylcellulose) (HPC) 97 % of control | [18] 97 % of control

FC(F)(F)C(c1ccc(Cl)cc1)c1ccc(Cl)cc1
inactive: dose: 10.0 mg/kg/injection, schedule: Q01DX009 (ip), vehicle: saline with Tween-80 105 % of control | dose: 20.0 mg/kg/injection, schedule: Q01DX009 (ip), vehicle: saline with Tween-80 89 % of control | dose: 40.0 mg/kg/injection, schedule: Q01DX009 (ip), vehicle: saline with Tween-80 97 % of control | dose: 50.0 mg/kg/injection, schedule: Q01DX001 (ip), vehicle: saline 103 % of control | dose: 100.0 mg/kg/injection, schedule: Q01DX001 (ip), vehicle: saline 97 % of control | [5] 97 % of control | [8] 103 % of control | dose: 200.0 mg/kg/injection, schedule: Q01DX001 (ip), vehicle: saline 97 % of control | [10] 102 % of control | dose: 400.0 mg/kg/injection, schedule: Q01DX001 (ip), vehicle: saline 103 % of control | [12] 100 % of control

O=C(CCCl)[O][Pb]([O]C(=O)CCCl)([c]1ccccc1)[c]1ccccc1
inactive: dose: 100.0 mg/kg/injection, schedule: Q04DX003 (ip), vehicle: saline 108 % of control

O=C1Nc2ccccc2Cc2ccccc21
inactive: [7] 93 % of control | [8] 102 % of control | [9] 92 % of control | [10] 102 % of control | [12] 107 % of control

O=S1(=O)CC(O)C(Br)C1Br (stereo not given)
inactive: [15] 96 % of control | [16] 104 % of control | [17] 94 % of control

[Co].[NH-]C(=O)c1ccccn1.[NH2-].[NH2-].[NH2-].[NH2-].[NH2-]
inactive: dose: 100.0 mg/kg/injection, schedule: Q04DX002 (ip), vehicle: saline 118 % of control | dose: 200.0 mg/kg/injection, schedule: Q04DX002 (ip), vehicle: saline 101 % of control | dose: 400.0 mg/kg/injection, schedule: Q04DX002 (ip), vehicle: saline 108 % of control
